Experiments:
[1] = target: T1, ERα (Homo sapiens, UniProt P03372); experiment: PI3K activation; type: cell-based; settings: ERα-transfected COS7 cells; concentrations 100-fold greater than required to inhibit GPR30
T1 sequence (P03372 1-595): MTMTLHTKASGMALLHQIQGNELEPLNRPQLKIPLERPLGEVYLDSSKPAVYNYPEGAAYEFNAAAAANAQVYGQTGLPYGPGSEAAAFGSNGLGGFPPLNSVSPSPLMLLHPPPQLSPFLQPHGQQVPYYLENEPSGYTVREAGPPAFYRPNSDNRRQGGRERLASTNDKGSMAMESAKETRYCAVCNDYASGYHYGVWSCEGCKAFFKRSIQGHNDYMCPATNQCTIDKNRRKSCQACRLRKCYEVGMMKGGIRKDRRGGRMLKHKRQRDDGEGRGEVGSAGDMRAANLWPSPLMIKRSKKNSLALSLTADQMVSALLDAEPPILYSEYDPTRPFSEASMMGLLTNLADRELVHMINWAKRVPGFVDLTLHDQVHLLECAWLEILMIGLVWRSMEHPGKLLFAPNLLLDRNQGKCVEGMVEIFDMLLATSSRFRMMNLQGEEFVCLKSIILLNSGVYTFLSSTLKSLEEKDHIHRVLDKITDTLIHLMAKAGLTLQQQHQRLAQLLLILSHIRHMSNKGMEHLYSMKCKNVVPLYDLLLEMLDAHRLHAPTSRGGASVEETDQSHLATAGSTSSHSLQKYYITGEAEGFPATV

[2] = system: uterine epithelia; experiment: Mouse uterine estrogenicity assay; type: in vivo; settings: G15 plus E2 (0.74 nmol); dose-dependent, maximal at 10-fold molar excess of G15
[3] = target: T1, ERα; experiment: Competitive binding with E2-Alexa633 in COS7 cells transfected with ERα-GFP
[4] = target: T2, GPR30 (Homo sapiens, UniProt Q99527); experiment: Intracellular calcium mobilization in indo1-AM-loaded SKBr3 cells; type: cell-based; settings: G15 1 μM
T2 sequence (Q99527 whole entry): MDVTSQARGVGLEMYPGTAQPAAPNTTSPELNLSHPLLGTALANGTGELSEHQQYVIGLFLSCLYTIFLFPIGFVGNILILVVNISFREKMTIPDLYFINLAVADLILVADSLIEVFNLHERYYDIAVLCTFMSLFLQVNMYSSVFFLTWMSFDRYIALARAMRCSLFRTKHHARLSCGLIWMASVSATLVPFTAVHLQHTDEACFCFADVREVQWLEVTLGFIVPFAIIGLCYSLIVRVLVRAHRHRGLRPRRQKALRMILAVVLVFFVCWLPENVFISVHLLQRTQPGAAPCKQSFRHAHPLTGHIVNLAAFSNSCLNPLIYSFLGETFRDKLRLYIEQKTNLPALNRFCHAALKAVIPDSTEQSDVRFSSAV

[5] = system: adult male ICR mice; experiment: Mouse depression assay; type: in vivo; settings: intraperitoneal
[6] = target: T2, GPR30; experiment: PI3K activation; type: cell-based; settings: SKBr3 cells
[7] = target: T2, GPR30; experiment: PI3K activation; type: cell-based; settings: GPR30-transfected COS7 cells
[8] = target: ERβ (Homo sapiens, UniProt Q92731); experiment: PI3K activation; type: cell-based; settings: ERβ-transfected COS7 cells; concentrations 100-fold greater than required to inhibit GPR30
Chain of ERβ (Q92731 whole entry, species assumed): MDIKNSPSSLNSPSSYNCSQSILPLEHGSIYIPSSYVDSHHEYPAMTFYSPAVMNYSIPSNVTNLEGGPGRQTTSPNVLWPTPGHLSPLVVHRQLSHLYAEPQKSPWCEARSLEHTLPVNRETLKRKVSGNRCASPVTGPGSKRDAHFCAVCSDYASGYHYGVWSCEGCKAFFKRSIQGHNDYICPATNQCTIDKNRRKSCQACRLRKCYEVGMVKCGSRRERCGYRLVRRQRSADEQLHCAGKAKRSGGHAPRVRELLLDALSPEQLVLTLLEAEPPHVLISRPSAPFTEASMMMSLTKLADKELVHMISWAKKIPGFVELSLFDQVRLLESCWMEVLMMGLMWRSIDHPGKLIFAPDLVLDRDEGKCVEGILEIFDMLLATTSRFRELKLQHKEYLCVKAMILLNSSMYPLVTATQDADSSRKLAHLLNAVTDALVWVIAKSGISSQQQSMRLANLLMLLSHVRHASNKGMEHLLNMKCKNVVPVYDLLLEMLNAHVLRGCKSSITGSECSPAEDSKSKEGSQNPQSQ

effect on estrogen-mediated PI3K response [1]: no effect | Ki [3]: > 10 µM | mobilization of intracellular calcium by compound alone ([4]; G-1 200 nM, E2 100 nM): incapable of inducing a response | effect of G15 exposure on subsequent calcium response to G-1 or estrogen ([4]; then G-1 200 nM or E2 100 nM): substantially reduced the response | inhibition of estrogen and G-1 stimulation of PI3K [6]: able to inhibit | inhibition of G-1-mediated activation of PI3K [7]: capable of inhibiting | inhibition of estrogen-mediated PI3K response [7]: effectively blocked | effect on estrogen-mediated PI3K response [8]: no effect
Structure (SMILES): Brc1cc2c(cc1[C@@H]1Nc3ccccc3[C@@H]3C=CC[C@@H]31)OCO2 (racemic) [G15, 4-(6-Bromo-benzo[1,3]dioxol-5-yl)-3a,4,5,9b-tetrahydro-3H-cyclopenta[c]quinoline]
reduction of E2-induced uterine epithelial proliferation [2]: approximately 50% | effect of G15 pretreatment on the G-1 effect on immobility time ([5]; G15 10 nmol/mouse + G-1 1 nmol/mouse): significantly attenuated | effect of G15 pretreatment on the E2 effect on immobility time ([5]; G15 25 nmol/mouse + soluble E2 5 mg/kg): significantly attenuated

Source: publication PMC2864230 (Nature chemical biology, 2009)
